Values joined by “and” are separate entries in the source; they are usually repeats but may differ in a detail not shown here. Equal values may be shown once.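 48-hour exposure; five concentrations; linearly interpolated endpoints. GI50: concentration for 50% inhibition of growth. TGI: concentration producing complete growth inhibition.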 Some results are limits rather than exact numbers.

The text below walks through data of PubChem BioAssay (NCI).

Holding throughout (assay): NCI tumour cell line growth inhibition, 48 h
The test system of assay [1] is RXF 393 renal.
The subject of assay [2] is UACC-257 melanoma.
Assay [3] relates to HS 578T breast.
Assay [4] concerns SR leukemia.
Assay [5] concerns MCF7 breast.
For assay [6], the system named is ACHN renal.
Assay [7] concerns TK-10 renal.
The subject of assay [8] is HCT-116 colon.
Assay [9] deals with SF-295 CNS.
Assay [10] relates to KM12 colon.

For `CC1=C2C(=CC(C)(C)[C@@H]2O)C(=O)[C@](C)(O)C12CC2`, the TGI is 19.9 nM in assay [1]; 328 nM and 259 nM in [2]; 85.5 nM and 39.5 nM in [3]; 74.4 nM and 268 nM in [4]; 46.9 nM and 123 nM in [5]; 62.5 nM and 114 nM in [6]. Also, the TGI is 222 nM and 236 nM in assay [7]; 186 nM and 193 nM in assay [8]; 110 nM and 50.3 nM in [9]; 123 nM and 411 nM in assay [10]. The GI50 in [3] is 27.6 nM; in [4], 3.51 nM; in assay [5] it was 4.72 nM; in [6], 7.96 nM; in [7], 51.1 nM; in assay [9], 26 nM. Also, the GI50 in assay [10] was 20.5 nM.
Take `Oc1c(Cl)cc(Cl)c2ccc(Cn3cc(-c4cc(C(F)(F)F)cc(C(F)(F)F)c4)nn3)nc12`: the GI50 was 555 nM in assay [1]; 1220 nM in assay [2]; 2980 nM in [3]; 714 nM in assay [4]; 526 nM in assay [5]; 1250 nM in [6]. Further, the GI50 in [7] is 1820 nM; in [8], 481 nM; in [9] it was 17000 nM; in assay [10] it was 10500 nM. Further, the TGI amounted to 1970 nM in assay [1]; 2990 nM in [2]; 9300 nM in assay [3]; 5680 nM in [4]; 2100 nM in [5]; 2500 nM in assay [6]. Moreover, the TGI is 3830 nM in assay [7], 1760 nM in assay [8], 31000 nM in [9] and 23400 nM in assay [10].
For the molecule `Cc1ccc2nc(-c3ccc(OCC(=O)N=Nc4c(O)[nH]c5ccccc45)cc3)[nH]c2c1`, the GI50 in assay [1] was 7940 nM; in assay [2] it was 29800 nM; in assay [3], 11400 nM; in assay [4], 499 nM; in [5], 1850 nM; in assay [6], 7370 nM. The GI50 was 12800 nM in [7], 2260 nM in [8], 19400 nM in assay [9] and 3550 nM in [10]. Also, the TGI in assay [1] was 24400 nM; in [2] it was > 100000 nM; in [3], 42300 nM; in assay [4], 3760 nM; in [5] it was 3960 nM; in assay [6] it was > 100000 nM. Besides, the TGI in assay [7] is 30800 nM; in assay [8], 5350 nM; in assay [9] it was 49700 nM; in assay [10], 13200 nM.
In the case of `Cc1cc(Cl)ccc1OCC(=O)Nc1nc(N)nc(N)n1`, the TGI in assay [1], in assay [2], in assay [3], in assay [4], in assay [5] and in assay [6] was > 100000 nM throughout. The TGI in [7], in assay [8], in assay [9] and in [10] was > 100000 nM throughout.
Consider `CCCCCCCCOC(=O)c1c(C)[nH]c(/C=C2\N=C(c3ccc[nH]3)C=C2OC)c1C`, for which the GI50 in assay [1] is 53.5 nM; in assay [2], 188 nM; in assay [3] it was 49.4 nM; in assay [4], < 16.9 nM; in assay [5], 46.2 nM; in [6], 32.2 nM. Besides, the GI50 in assay [7] was 48.4 nM; in [8], < 17.7 nM; in assay [9] it was 77.9 nM; in assay [10] it was 35.5 nM. The TGI in assay [1] was determined as 1730 nM; in assay [2], 7450 nM; in assay [3], 578 nM; in [4], 1050 nM; in assay [5], 1670 nM; in assay [6], 1770 nM. The TGI in [7] is 7290 nM; in assay [8], 1250 nM; in assay [9], 639 nM; in assay [10], 1970 nM.
`CCCCCN(CCCCC)CC(O)c1cc(Cl)ccc1OC` (configuration not stated): the GI50 is 2580 nM in assay [1]; 4980 nM in [2]; 12900 nM in [3]; 4780 nM in assay [4]; 528 nM in [5]; 10500 nM in assay [6]. Besides, the GI50 is 10900 nM in [7], 2490 nM in [8], 1380 nM in assay [9] and 7350 nM in [10]. Also, the TGI was 7870 nM in assay [1]; 18700 nM in assay [2]; 33600 nM in assay [3]; 30500 nM in assay [4]; 2660 nM in [5]; 24900 nM in assay [6]. Further, the TGI stood at 24100 nM in assay [7], 12600 nM in assay [8], 12600 nM in assay [9] and 21300 nM in [10].
For `c1cc(-c2nnc(SSc3ncnc4nc[nH]c34)o2)ccn1`, the GI50 is 6590 nM in assay [1]; 9340 nM in assay [2]; 2560 nM in assay [3]; 576 nM in assay [4]; 419 nM in assay [5]; 4070 nM in assay [6]. Moreover, the GI50 in [7] is 487 nM; in assay [8], 2000 nM; in assay [9], 510 nM; in [10] it was 2610 nM. In addition, the TGI in assay [1], in assay [2], in assay [3], in [4], in assay [5] and in [6] was > 100000 nM throughout. Also, the TGI is > 100000 nM in assay [7], > 100000 nM in assay [8], 12800 nM in assay [9] and > 100000 nM in [10].
Take `NS(=O)(=O)c1ccc(N=Nc2c(O)[nH]c3ccc(C(=O)NCc4ccncc4)cc23)cc1`: the GI50 in assay [1], in [2], in [3], in assay [4], in [5] and in assay [6] was > 25000 nM each time. In addition, the GI50 in [7], in [8], in assay [9] and in assay [10] was > 25000 nM throughout. The TGI in assay [1], in assay [2], in assay [3], in assay [4], in [5] and in assay [6] was > 25000 nM in each case. Moreover, the TGI in assay [7], in assay [8], in [9] and in assay [10] was > 25000 nM in each case.
